The species entered for data set [1] is Rattus norvegicus. Nature of the data set: Displacement of [3H]batrachotoxinin from sodium channel site2 in rat cerebral cortex at 10 uM after 60 mins by scintillation counting. It is filed as tissue-based.
In data set [2] the target is B2 bradykinin receptor (Homo sapiens) (UniProt P30411). The data set can be described thus: Displacement of [3H]bradykinin from human recombinant bradykinin B2 receptor expressed in CHO cells at 10 uM after 60 mins by scintillation counting. It is filed as cell-based.
Data set [3] concerns the target Muscarinic acetylcholine receptor M2 (Homo sapiens) (UniProt P08172). Nature of the data set: Displacement of [3H]AF-DX 384 from human recombinant muscarinic M2 receptor expressed in CHO cells at 10 uM after 60 mins by scintillation counting. It is filed as cell-based.
The target in data set [4] is L-type calcium channel (verapamil binding site) (Rattus norvegicus, UniProt P22002+P27732+Q02485). Nature of the data set: Displacement of [3H]verapamil from verapamil binding site of L-type calcium channel in rat cerebral cortex at 10 uM after 120 mins by scintillation counting. It is filed as tissue-based. The settings on record: probe [3H]verapamil, read-out: Activity.

Data set [5] can be described thus: Inhibition of Cytochrome P450 at <15 uM. It is filed as ADME.
Data set [6] deals with Endothelin receptor type B (Homo sapiens) (UniProt P24530). Nature of the data set: Displacement of [125I]endothelin-1 from human recombinant ETB receptor expressed in CHO cells at 10 uM after 120 mins by scintillation counting. It is filed as cell-based.
In data set [7] the target is Melanocortin receptor 4 (Homo sapiens) (UniProt P32245). The data set can be described thus: Displacement of [125I]NDP-a-MSH from human recombinant MC4 receptor expressed in CHO cells at 10 uM after 120 mins by scintillation counting. It is filed as cell-based.
The next data set has as its target P2X purinoceptor 2 (Homo sapiens, UniProt Q9UBL9). The data set can be described thus: Antagonist activity at P2X2 receptor. It is filed as functional.
The next data set concerns the target T1, P2X purinoceptor 3 (Rattus norvegicus, UniProt P49654).
T1 sequence (P49654 whole entry): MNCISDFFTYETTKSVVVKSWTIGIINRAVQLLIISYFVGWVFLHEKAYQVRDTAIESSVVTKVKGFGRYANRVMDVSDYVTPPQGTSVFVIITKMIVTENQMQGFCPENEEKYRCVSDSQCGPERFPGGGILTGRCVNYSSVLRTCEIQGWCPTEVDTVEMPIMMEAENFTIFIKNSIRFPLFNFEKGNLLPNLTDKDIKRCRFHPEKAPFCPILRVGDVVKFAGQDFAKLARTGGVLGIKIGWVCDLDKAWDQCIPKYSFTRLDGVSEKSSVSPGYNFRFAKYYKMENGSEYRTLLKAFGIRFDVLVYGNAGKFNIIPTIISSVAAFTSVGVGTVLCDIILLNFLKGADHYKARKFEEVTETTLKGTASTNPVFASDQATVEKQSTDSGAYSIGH
The data set can be described thus: Antagonist activity at rat P2X3 receptor expressed in CHO cells. It is filed as functional, cell-based.

Data set [8] has as its target Calcitonin gene-related peptide type 1 receptor (Homo sapiens) (UniProt Q16602). Nature of the data set: Displacement of [125I]hCGRPa from human recombinant CGRP receptor expressed in CHO cells at 10 uM after 90 mins by scintillation counting. It is filed as cell-based.
Data set [9] concerns the target C-X-C chemokine receptor type 2 (Homo sapiens) (UniProt P25025). The data set can be described thus: Displacement of [125I]IL-8 from human recombinant CXCR2 receptor expressed in HEK293 cells at 10 uM after 60 mins by scintillation counting. It is filed as cell-based.
Data set [10] has as its target Endothelin-1 receptor (Homo sapiens) (UniProt P25101). Nature of the data set: Displacement of [125I]endothelin-1 from human recombinant ETA receptor expressed in CHO cells at 10 uM after 120 mins by scintillation counting. It is filed as cell-based.
In data set [11] the target is Somatostatin receptor (Mus musculus) (UniProt P30935+O08858+P30875+P30873+P49660). The data set can be described thus: Displacement of [125I]Tyr11-somatostatin-14 from somatostatin in mouse AtT-20 cells at 10 uM after 60 mins by scintillation counting. The settings on record: AtT20. It is filed as cell-based.
In data set [12] the target is 5-hydroxytryptamine receptor 2A (Homo sapiens) (UniProt P28223). The data set can be described thus: Displacement of [3H]ketanserin from human recombinant 5HT2A receptor expressed in HEK293 cells at 10 uM after 60 mins by scintillation counting. It is filed as cell-based.
Data set [13] is filed under the species Rattus norvegicus. Nature of the data set: Displacement of [3H]DTG from sigma opioid receptor in rat cerebral cortex at 10 uM after 120 mins by scintillation counting. It is filed as tissue-based.
In another data set the target is P2X purinoceptor 1 (Homo sapiens, UniProt P51575). Nature of the data set: Antagonist activity at P2X1 receptor. It is filed as functional.
In data set [14] the target is Galanin receptor type 2 (Homo sapiens) (UniProt O43603). The data set can be described thus: Displacement of [125I]galanin from human recombinant GAL2 receptor expressed in HEK293 cells at 10 uM after 120 mins by scintillation counting. It is filed as cell-based.
In data set [15] the target is Sodium-dependent noradrenaline transporter (Homo sapiens) (UniProt P23975). The data set can be described thus: Displacement of [3H]nisoxetine from human recombinant NET expressed in CHO cells at 10 uM after 120 mins by scintillation counting. It is filed as cell-based.
Data set [16] has as its target D(3) dopamine receptor (Homo sapiens) (UniProt P35462). Nature of the data set: Displacement of [3H]methyl-spiperone from human recombinant dopamine D3 receptor expressed in CHO cells at 10 uM after 60 mins by scintillation counting. It is filed as cell-based.
In data set [17] the target is Nociceptin receptor (Homo sapiens) (UniProt P41146). The data set can be described thus: Displacement of [3H]nociceptin from human recombinant NOP receptor expressed in HEK293 cells at 10 uM after 60 mins by scintillation counting. It is filed as cell-based.
Data set [18] deals with Pituitary adenylate cyclase-activating polypeptide type I receptor (Homo sapiens) (UniProt P41586). The data set can be described thus: Displacement of [125I]PACAP1-27 from human recombinant PAC1 receptor expressed in CHO cells at 10 uM after 120 mins by scintillation counting. It is filed as cell-based.
Data set [19] concerns the target Muscarinic acetylcholine receptor M5 (Homo sapiens) (UniProt P08912). The data set can be described thus: Displacement of [3H]4-DAMP from human recombinant muscarinic M5 receptor expressed in CHO cells at 10 uM after 60 mins by scintillation counting. It is filed as cell-based.
The target in data set [20] is Platelet-derived growth factor receptor (Mus musculus) (UniProt P05622+P26618). Nature of the data set: Displacement of [125I]PDGF BB from PDGFR in BALB/c mouse 3T3 cells at 10 uM after 180 mins by scintillation counting. It is filed as cell-based.
Data set [21] concerns the target D(1B) dopamine receptor (Homo sapiens) (UniProt P21918). Nature of the data set: Displacement of [3H]SCH 23390 from human recombinant dopamine D5 receptor expressed in rat GH4 cells at 10 uM after 60 mins by scintillation counting. It is filed as cell-based.

The structures appear in SMILES notation.

Chain of Endothelin receptor type B (Homo sapiens) (P24530 whole entry): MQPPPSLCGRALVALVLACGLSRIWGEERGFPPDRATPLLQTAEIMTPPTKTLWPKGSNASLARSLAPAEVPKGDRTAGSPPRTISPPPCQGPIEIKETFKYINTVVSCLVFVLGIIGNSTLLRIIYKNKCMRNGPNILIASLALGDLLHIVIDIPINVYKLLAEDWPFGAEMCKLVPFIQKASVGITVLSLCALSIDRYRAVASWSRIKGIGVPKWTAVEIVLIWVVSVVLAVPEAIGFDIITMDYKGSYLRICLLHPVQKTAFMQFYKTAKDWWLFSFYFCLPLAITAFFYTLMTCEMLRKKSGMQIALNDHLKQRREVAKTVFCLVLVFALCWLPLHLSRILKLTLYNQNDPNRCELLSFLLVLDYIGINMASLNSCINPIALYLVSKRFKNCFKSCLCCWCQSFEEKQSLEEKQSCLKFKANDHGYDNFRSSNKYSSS
Chain of P2X purinoceptor 1 (P51575 whole entry): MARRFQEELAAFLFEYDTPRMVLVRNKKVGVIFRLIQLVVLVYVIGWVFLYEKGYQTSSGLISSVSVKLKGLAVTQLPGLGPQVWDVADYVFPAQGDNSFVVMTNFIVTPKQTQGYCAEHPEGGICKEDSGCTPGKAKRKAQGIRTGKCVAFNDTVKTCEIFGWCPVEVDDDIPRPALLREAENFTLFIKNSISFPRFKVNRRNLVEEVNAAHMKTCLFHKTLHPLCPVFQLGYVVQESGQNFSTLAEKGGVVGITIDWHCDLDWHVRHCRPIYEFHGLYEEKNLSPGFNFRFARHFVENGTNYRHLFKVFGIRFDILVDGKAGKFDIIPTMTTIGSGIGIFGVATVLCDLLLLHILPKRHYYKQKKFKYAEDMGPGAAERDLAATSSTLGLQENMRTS
Chain of Somatostatin receptor (Mus musculus) (P30935 whole entry): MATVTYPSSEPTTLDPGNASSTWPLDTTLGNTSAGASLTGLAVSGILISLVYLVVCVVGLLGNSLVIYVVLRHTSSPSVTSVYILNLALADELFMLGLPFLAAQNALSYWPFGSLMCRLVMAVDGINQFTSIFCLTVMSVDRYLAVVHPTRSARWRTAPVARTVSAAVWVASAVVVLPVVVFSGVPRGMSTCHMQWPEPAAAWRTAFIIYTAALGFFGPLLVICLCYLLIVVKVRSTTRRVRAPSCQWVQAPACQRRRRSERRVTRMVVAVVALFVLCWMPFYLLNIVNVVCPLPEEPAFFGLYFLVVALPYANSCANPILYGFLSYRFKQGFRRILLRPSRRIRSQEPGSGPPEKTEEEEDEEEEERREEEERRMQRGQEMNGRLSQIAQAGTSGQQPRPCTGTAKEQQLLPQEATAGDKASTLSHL
Chain of Somatostatin receptor (Mus musculus) (O08858 whole entry): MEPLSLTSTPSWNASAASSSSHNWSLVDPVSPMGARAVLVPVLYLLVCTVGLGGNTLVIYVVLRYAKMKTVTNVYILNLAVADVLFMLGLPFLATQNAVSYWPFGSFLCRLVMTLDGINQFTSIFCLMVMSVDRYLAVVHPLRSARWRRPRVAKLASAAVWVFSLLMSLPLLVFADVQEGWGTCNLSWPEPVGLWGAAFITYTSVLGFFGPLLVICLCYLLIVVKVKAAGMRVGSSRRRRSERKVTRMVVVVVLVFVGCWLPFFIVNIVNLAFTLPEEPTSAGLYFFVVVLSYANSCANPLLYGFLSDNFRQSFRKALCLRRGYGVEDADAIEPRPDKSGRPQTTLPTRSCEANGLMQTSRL
Chain of Somatostatin receptor (Mus musculus) (P30875 whole entry): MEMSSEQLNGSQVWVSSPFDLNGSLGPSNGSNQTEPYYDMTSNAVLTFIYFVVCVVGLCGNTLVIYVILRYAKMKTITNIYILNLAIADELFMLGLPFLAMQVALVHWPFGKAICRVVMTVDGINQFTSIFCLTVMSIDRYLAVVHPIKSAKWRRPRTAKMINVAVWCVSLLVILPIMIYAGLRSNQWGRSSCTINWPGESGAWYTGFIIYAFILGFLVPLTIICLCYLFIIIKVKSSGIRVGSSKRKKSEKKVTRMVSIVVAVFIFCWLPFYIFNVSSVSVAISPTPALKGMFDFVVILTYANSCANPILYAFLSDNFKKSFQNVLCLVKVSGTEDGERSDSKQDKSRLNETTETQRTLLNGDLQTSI
Chain of Somatostatin receptor (Mus musculus) (P30873 whole entry): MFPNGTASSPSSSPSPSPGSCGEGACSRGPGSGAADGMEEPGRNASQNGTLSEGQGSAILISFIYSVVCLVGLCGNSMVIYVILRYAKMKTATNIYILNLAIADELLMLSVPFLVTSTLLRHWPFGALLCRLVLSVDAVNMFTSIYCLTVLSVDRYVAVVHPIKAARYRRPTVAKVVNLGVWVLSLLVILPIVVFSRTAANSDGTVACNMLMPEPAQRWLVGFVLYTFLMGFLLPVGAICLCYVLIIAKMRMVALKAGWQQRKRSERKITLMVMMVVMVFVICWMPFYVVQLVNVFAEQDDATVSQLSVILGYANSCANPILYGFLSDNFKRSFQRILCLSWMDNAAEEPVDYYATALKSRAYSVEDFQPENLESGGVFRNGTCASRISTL
Chain of Somatostatin receptor (Mus musculus) (P49660 with tags, fused parts or gaps): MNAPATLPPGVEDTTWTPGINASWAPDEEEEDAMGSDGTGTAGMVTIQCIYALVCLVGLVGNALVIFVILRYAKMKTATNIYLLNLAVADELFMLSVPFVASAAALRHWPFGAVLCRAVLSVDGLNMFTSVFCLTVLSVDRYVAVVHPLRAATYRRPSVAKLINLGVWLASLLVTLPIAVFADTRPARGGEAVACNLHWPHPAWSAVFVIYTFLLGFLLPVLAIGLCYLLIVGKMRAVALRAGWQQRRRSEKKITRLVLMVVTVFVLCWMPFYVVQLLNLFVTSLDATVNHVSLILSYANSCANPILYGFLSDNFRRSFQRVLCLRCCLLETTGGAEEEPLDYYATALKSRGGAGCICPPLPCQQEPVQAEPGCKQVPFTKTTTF
Chain of Sodium-dependent noradrenaline transporter (Homo sapiens) (P23975 whole entry): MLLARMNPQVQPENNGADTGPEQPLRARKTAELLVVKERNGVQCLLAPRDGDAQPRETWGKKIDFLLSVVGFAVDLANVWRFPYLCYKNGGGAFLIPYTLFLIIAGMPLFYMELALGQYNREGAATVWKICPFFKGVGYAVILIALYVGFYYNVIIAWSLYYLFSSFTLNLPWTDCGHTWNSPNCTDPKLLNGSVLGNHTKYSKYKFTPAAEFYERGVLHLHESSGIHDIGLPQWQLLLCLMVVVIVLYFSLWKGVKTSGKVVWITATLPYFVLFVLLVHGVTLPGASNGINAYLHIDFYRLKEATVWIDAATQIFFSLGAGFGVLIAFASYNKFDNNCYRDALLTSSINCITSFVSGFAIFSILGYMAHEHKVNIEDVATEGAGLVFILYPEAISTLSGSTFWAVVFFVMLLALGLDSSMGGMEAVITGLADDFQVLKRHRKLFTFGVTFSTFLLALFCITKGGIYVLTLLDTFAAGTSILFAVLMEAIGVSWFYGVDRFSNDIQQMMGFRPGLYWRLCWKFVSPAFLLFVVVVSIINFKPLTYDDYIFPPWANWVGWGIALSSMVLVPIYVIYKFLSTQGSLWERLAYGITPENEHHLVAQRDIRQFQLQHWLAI
Chain of Muscarinic acetylcholine receptor M2 (Homo sapiens) (P08172 whole entry): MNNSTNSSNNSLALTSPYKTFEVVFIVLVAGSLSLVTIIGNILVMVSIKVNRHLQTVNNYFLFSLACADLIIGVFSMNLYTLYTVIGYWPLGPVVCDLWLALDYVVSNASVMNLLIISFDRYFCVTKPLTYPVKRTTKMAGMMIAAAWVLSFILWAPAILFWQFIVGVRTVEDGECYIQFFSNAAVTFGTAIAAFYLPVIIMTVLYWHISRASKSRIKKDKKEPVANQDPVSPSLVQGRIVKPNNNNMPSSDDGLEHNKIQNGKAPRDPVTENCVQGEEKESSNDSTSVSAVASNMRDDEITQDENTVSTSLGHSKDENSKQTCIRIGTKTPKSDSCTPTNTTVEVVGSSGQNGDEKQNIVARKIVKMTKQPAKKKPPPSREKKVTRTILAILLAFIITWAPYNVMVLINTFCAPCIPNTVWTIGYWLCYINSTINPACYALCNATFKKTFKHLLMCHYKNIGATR
Chain of P2X purinoceptor 2 (Q9UBL9 whole entry): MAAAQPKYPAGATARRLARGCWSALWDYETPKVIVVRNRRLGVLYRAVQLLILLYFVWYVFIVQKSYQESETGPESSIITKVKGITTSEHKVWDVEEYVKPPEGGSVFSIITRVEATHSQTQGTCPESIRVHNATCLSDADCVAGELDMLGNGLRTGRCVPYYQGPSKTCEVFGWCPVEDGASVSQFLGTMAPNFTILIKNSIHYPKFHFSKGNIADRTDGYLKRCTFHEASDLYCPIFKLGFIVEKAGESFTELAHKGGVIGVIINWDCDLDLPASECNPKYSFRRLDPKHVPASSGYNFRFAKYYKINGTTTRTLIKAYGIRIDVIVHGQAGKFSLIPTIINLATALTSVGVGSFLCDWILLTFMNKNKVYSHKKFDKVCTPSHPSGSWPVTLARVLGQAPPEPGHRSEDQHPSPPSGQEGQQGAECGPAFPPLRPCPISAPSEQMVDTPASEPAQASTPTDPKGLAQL
Chain of 5-hydroxytryptamine receptor 2A (Homo sapiens) (P28223 whole entry): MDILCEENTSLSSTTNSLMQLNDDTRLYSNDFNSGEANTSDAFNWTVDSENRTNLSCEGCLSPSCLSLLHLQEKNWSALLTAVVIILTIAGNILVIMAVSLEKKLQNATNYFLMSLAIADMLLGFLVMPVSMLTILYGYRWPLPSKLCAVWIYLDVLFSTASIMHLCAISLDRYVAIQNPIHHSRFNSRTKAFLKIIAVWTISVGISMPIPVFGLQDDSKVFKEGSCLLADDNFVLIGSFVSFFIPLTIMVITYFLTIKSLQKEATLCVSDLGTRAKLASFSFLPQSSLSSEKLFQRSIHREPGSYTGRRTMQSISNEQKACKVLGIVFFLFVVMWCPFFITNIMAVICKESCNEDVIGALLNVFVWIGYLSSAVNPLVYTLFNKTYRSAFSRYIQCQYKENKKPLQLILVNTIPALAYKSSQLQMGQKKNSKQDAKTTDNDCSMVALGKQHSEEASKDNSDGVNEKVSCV

As for `CC(=O)N1CCN(C[C@@H](C)NC(=O)c2cc3c(-c4ccccc4)nn(C)c3s2)CC1`, the Activity in the data set filed under Rattus norvegicus [1] is over 50%; in data set [2] it was over 50%; in data set [3] it was over 50%; in data set [5], “Not Active”; in data set [6], over 50%; in data set [7], over 50%. Besides, the Activity (in [8]; in data set [9]; in [10]; in data set [11]; in data set [12]; in the data set listed under Rattus norvegicus [13]) was over 50% each time. Further, the Activity in data set [14], in data set [15], in data set [16], in data set [17], in data set [18] and in [19] was over 50% throughout. Moreover, the Activity in data set [20] and in data set [21] was over 50% in each case. In addition, the inhibition at 2 h, 10 µM in [4] is over 50%. Moreover, the IC50 at P2X purinoceptor 2 is over 10 µM; against P2X purinoceptor 3, 0.0316 µM; at P2X purinoceptor 1, over 10 µM.
